# Assay results published in PMC10327353 (Breast Cancer Research : BCR, 2023).
# Assay: Phase 1 study: safety and tolerability
# Assay type: in vivo
# Procedure: The maximum tolerated dose (MTD) of DZD1516 was defined based on safety data and the Bayesian optimal interval (BOIN) design (Additional file 1). The definition of DLT is provided in Additional file 1.
# The AE grading was assessed according to the NCI-Common Terminology Criteria for Adverse Events (CTCAE) (version 5.0) and was monitored until 28 days after the last dose.
# Eligible patients received single oral dosing of DZD1516 on Cycle 0 Day 1 (C0D1), followed by a 7-day washout. Twice daily oral dosing (bid) of DZD1516 was commenced from C1D1 in a continuous 21-day cycle until disease progression, unacceptable toxicity, or withdrawal of consent. All doses were taken under fed conditions (within 30 minutes after a meal).
# Planned dosing consisted of 25, 50, 100, 200, 300, and 400 mg. Each dose escalation cohort will comprise a minimum of three and a maximum of six evaluable patients (except only one patient in the starting dose cohort). The maximum tolerated dose of DZD1516 was defined according to safety data and the Bayesian optimal interval (BOIN) design. Dose escalation/de-escalation rule with target toxicity rate for the MTD is 0.30 with interval of (0.20, 0.33).
# DLTs were any adverse event (AE) not clearly attributable to the patient’s disease, including ≥ grade 4 hematological toxicities present for ≥ 4 days, grade 3 thrombocytopenia with bleeding, or grade 4 thrombocytopenia lasting for > 5 days, ≥ grade 3 non-hematological toxicities that is dose-limiting in the judgment of the investigators. Any other toxicity that is greater than that at baseline, is clinically significant or unacceptable, and is judged to be a DLT by the SRC. Exceptions included alopecia of any grade and isolated grade 3 laboratory change without clinical sequelae or clinical significance.
# Safety evaluations were conducted at screening, on Day 1, 8, and 15 of Cycle 1, on Day 1 of each subsequent treatment cycle, at the end-of-treatment visit, and clinically indicated. Safety assessments included clinical laboratory measurements (hematology, chemistry, coagulation, and urinalysis), electrocardiogram (ECG), Echocardiogram/MUGA scan, ECOG performance status, vital signs, and physical examinations.
structure (smiles),measurement,setting,value
COc1cc(O[C@H]2CCN(C)CC2(F)F)c2c(Nc3ccc(Oc4ccn5ncnc5c4)c(C)c3)ncnc2c1 [DZD1516],"Renal and urinary disorders, Any Grade",25 mg (N = 1),0 (0.0) n (%)
same,"Renal and urinary disorders, ≥ Grade 3",25 mg (N = 1),0 (0.0) n (%)
same,Subjects with any TEAE,25 mg (N = 1),1 (100.0) n (%)
same,Subjects with any drug-related TEAE,25 mg (N = 1),1 (100.0) n (%)
same,"Vomiting, Any Grade",25 mg (N = 1),0 (0.0) n (%)
same,"Vomiting, ≥ Grade 3",25 mg (N = 1),0 (0.0) n (%)
same,"White blood cell count decreased, Any Grade",25 mg (N = 1),0 (0.0) n (%)
same,"White blood cell count decreased, ≥ Grade 3",25 mg (N = 1),0 (0.0) n (%)
same,"Alanine aminotransferase increased, Any Grade",50 mg (N = 4),1 (25.0) n (%)
same,"Alanine aminotransferase increased, ≥ Grade 3",50 mg (N = 4),0 (0.0) n (%)
same,"Anemia, Any Grade",50 mg (N = 4),0 (0.0) n (%)
same,"Anemia, ≥ Grade 3",50 mg (N = 4),0 (0.0) n (%)
same,Any TEAE: Grade 3,50 mg (N = 4),0 (0.0) n (%)
same,Any TEAE: Leading to death,50 mg (N = 4),0 (0.0) n (%)
same,Any TEAE: Leading to dose reduction,50 mg (N = 4),0 (0.0) n (%)
same,Any TEAE: Leading to treatment discontinuation,50 mg (N = 4),0 (0.0) n (%)
same,Any TEAE: Leading to treatment interruption,50 mg (N = 4),0 (0.0) n (%)
same,Any TEAE: SAE,50 mg (N = 4),0 (0.0) n (%)
same,"Aspartate aminotransferase increased, Any Grade",50 mg (N = 4),1 (25.0) n (%)
same,"Aspartate aminotransferase increased, ≥ Grade 3",50 mg (N = 4),0 (0.0) n (%)
same,"Blood and lymphatic system disorders, Any Grade",50 mg (N = 4),0 (0.0) n (%)
same,"Blood and lymphatic system disorders, ≥ Grade 3",50 mg (N = 4),0 (0.0) n (%)
same,"Blood bilirubin increased, Any Grade",50 mg (N = 4),0 (0.0) n (%)
same,"Blood bilirubin increased, ≥ Grade 3",50 mg (N = 4),0 (0.0) n (%)
same,"Cardiac disorders, Any Grade",50 mg (N = 4),0 (0.0) n (%)
same,"Cardiac disorders, ≥ Grade 3",50 mg (N = 4),0 (0.0) n (%)
same,"Constipation, Any Grade",50 mg (N = 4),0 (0.0) n (%)
same,"Constipation, ≥ Grade 3",50 mg (N = 4),0 (0.0) n (%)
same,"Decreased appetite, Any Grade",50 mg (N = 4),0 (0.0) n (%)
same,"Decreased appetite, ≥ Grade 3",50 mg (N = 4),0 (0.0) n (%)
same,"Dizziness, Any Grade",50 mg (N = 4),0 (0.0) n (%)
same,"Dizziness, ≥ Grade 3",50 mg (N = 4),0 (0.0) n (%)
same,Drug-related TEAE: Grade 3,50 mg (N = 4),0 (0.0) n (%)
same,Drug-related TEAE: Leading to death,50 mg (N = 4),0 (0.0) n (%)
same,Drug-related TEAE: Leading to dose reduction,50 mg (N = 4),0 (0.0) n (%)
same,Drug-related TEAE: Leading to treatment discontinuation,50 mg (N = 4),0 (0.0) n (%)
same,Drug-related TEAE: Leading to treatment interruption,50 mg (N = 4),0 (0.0) n (%)
same,Drug-related TEAE: SAE,50 mg (N = 4),0 (0.0) n (%)
same,"Fatigue, Any Grade",50 mg (N = 4),0 (0.0) n (%)
same,"Fatigue, ≥ Grade 3",50 mg (N = 4),0 (0.0) n (%)
same,"Gastrointestinal disorders, Any Grade",50 mg (N = 4),0 (0.0) n (%)
same,"Gastrointestinal disorders, ≥ Grade 3",50 mg (N = 4),0 (0.0) n (%)
same,"General disorders and administration site conditions, Any Grade",50 mg (N = 4),0 (0.0) n (%)
same,"General disorders and administration site conditions, ≥ Grade 3",50 mg (N = 4),0 (0.0) n (%)
same,"Headache, Any Grade",50 mg (N = 4),1 (25.0) n (%)
same,"Headache, ≥ Grade 3",50 mg (N = 4),0 (0.0) n (%)
same,"Hemoglobin decreased, Any Grade",50 mg (N = 4),2 (50.0) n (%)
same,"Hemoglobin decreased, ≥ Grade 3",50 mg (N = 4),0 (0.0) n (%)
same,"Investigations, Any Grade",50 mg (N = 4),3 (75.0) n (%)
same,"Investigations, ≥ Grade 3",50 mg (N = 4),0 (0.0) n (%)
same,"Lipase increased, Any Grade",50 mg (N = 4),2 (50.0) n (%)
same,"Lipase increased, ≥ Grade 3",50 mg (N = 4),0 (0.0) n (%)
same,"Malaise, Any Grade",50 mg (N = 4),0 (0.0) n (%)
same,"Malaise, ≥ Grade 3",50 mg (N = 4),0 (0.0) n (%)
same,"Metabolism and nutrition disorders, Any Grade",50 mg (N = 4),1 (25.0) n (%)
same,"Metabolism and nutrition disorders, ≥ Grade 3",50 mg (N = 4),0 (0.0) n (%)
same,"Musculoskeletal and connective tissue disorders, Any Grade",50 mg (N = 4),1 (25.0) n (%)
same,"Musculoskeletal and connective tissue disorders, ≥ Grade 3",50 mg (N = 4),0 (0.0) n (%)
same,"Nausea, Any Grade",50 mg (N = 4),0 (0.0) n (%)
same,"Nausea, ≥ Grade 3",50 mg (N = 4),0 (0.0) n (%)
